Measured values published in patent publication US20230150951A1, “2,5- OR 2,6-DISUBSTITUTED HYDROQUINONE DERIVATIVES WITH AT LEAST ONE CARBOXY, SULFO OR AMIDO GROUP USEFUL AS MEDICAMENTS” (OM PHARMA SA, priority 2020, published 2023).
pIC50: −log10 of the molar value. Like-named read-outs stand apart in the source and are kept apart here.

Assays:
Type in all cases: cell-based
Human neutrophils = assay: Inhibition of ROS production in human neutrophils (isoluminol chemiluminescence); details: Homo sapiens, Neutrophil, fMLP+TNF-α stimulated PMN
Summary of the method: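 Extracellular ROS measured as isoluminol-amplified chemiluminescence following 1 μM fMLP activation on fibrinogen-coated plates, readings every 25 sec over 250 sec minus HBSS/isoluminol background. Beforehand, cells were treated with compounds at 0.1, 0.3, 1, 3 or 10 μM (30 min, 37° C) and TNF-α (20 ng/ml, 10 min); duplicate or triplicate.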

IFN-gamma = assay: Cytokine release after LPS induction on human whole blood: IFNγ
Experimental: (§1) Aim of this in vitro method is to assess compounds effects on release of a panel of cytokines from whole blood following lipopolysaccharide (LPS) induced inflammatory reaction. Whole blood was incubated with compounds for 1 h prior to LPS induction. Cytokine levels in blood were measured using a multiplex FACS-based panel.
(§2) IC50 values determined for the tested compounds expressed in microM [μM] and the values for the inhibition of cytokines were listed for each compound.
(§3) Effect on cytokines release after LPS induction was performed on the compounds dissolved in DMSO or H2O to reach 10-fold concentrated stock solutions and dissolved in culture media.
(§4) Test system: Whole blood was removed from a single donor (into lithium heparin coated tubes; BD Vacutainer; 367886) and diluted 1:5 with RPMI 1640 (Thermo Fisher, 61870036). Within 30 minutes of sampling, blood was incubated with compounds for 1 h prior to LPS stimulation (O111:B4—Sigma L4391; 10 ng/ml final concentration). Stimulation continued under standard cell culture conditions (37° C. with 5% CO2) overnight (18 h), after which plates were centrifuged and supernatant removed and frozen at −80° C. until used for analyses.
(§5) Dilution of test compounds: 10×concentrated solutions (concerning to the final assay concentrations) of each test compound were prepared with the appropriate solvent (in DMSO or in water). These 10× compound solutions (10 μl) were then added to 90 μl pre-diluted whole blood (whole blood: RPMI1640, 1:5) resulting in the final assay concentration.
(§6) Test method: Diluted whole blood (80 μl) was pre-incubated with compounds (10 μl) to give final assay concentrations of 100, 30, 10, 3, 1, 0.3 and 0.1×10^−6M. Blood was incubated at 37° C. with 5% CO2 for 1 h. LPS was diluted in cell culture media to a concentration of […]; 10 μl was added to the whole blood to give a final concentration of 10 ng/ml. Plates were incubated at 37° C. for 18 h. Plates were centrifuged at 3,000 RPM for 5 minutes at 4° C. and supernatant removed and frozen at −80° C. until FACS analysis was carried out.
(§7) Cytokine release was measured using a custom multiplex system (ELISA Genie) according to manufacturers instructions. Prepared samples were run on an Attune NxT flow cytometer (Thermo Fisher).
(§8) Quantification of cytokine release inhibition: known concentration standards were run as part of the cytokine panel to allow quantification of each cytokine concentration in each sample. This was carried out using FCAP Array v3.0 software.
(§9) Results: The dose response relationship on cytokine release following LPS induction of inflammatory response in whole blood was assessed for all compounds. IC50 values were determined for each compound for a panel of cytokines (GM-CSF, IFN-gamma, IL-1beta, IL-2, IL-4, IL-5, IL-6, IL-8, IL-9, IL-10, IL-12p40, IL-13, IL-17A, IL-17F, IL-18, IL-21, IL-22, IL-33, TGF-beta, TNF-alpha, TNF-beta).

IL-1beta = assay: Cytokine release after LPS induction on human whole blood: IL-1β
Experimental: as §1, §2, §3, §4, §5, §6, §7, §8, §9

IL-4 = assay: Cytokine release after LPS induction on human whole blood: IL-4
Experimental: as §1, §2, §3, §4, §5, §6, §7, §8, §9

IL-5 = assay: Cytokine release after LPS induction on human whole blood: IL-5
Experimental: as §1, §2, §3, §4, §5, §6, §7, §8, §9

IL-13 = assay: Cytokine release after LPS induction on human whole blood: IL-13
Experimental: as §1, §2, §3, §4, §5, §6, §7, §8, §9

IL-33 = assay: Cytokine release after LPS induction on human whole blood: IL-33
Experimental: as §1, §2, §3, §4, §5, §6, §7, §8, §9

TGF-beta = assay: Cytokine release after LPS induction on human whole blood: TGFβ
Experimental: as §1, §2, §3, §4, §5, §6, §7, §8, §9

TNF-alpha = assay: Cytokine release after LPS induction on human whole blood: TNFα
Experimental: as §1, §2, §3, §4, §5, §6, §7, §8, §9

[1] = Homo sapiens, LPS 10 ng/ml, 18 h, read-out: Whole Blood: IFNγ IC50
[2] = human whole blood, inhibition of LPS induced inflammation, read-out: IC50 IFNγ
[3] = Homo sapiens, LPS 10 ng/ml, 18 h, read-out: Whole Blood: IL-1β IC50
[4] = human whole blood, inhibition of LPS induced inflammation, read-out: IC50 IL-1b
[5] = Homo sapiens, LPS 10 ng/ml, 18 h, read-out: Whole Blood: IL-4 IC50
[6] = human whole blood, inhibition of LPS induced inflammation, read-out: IC50 IL-4
[7] = Homo sapiens, LPS 10 ng/ml, 18 h, read-out: Whole Blood: IL-5 IC50
[8] = human whole blood, inhibition of LPS induced inflammation, read-out: IC50 IL-5
[9] = Homo sapiens, LPS 10 ng/ml, 18 h, read-out: Whole Blood: IL-13 IC50
[10] = human whole blood, inhibition of LPS induced inflammation, read-out: IC50 IL-13
[11] = Homo sapiens, LPS 10 ng/ml, 18 h, read-out: Whole Blood: IL-33 IC50
[12] = human whole blood, inhibition of LPS induced inflammation, read-out: IC50 IL-33
[13] = Homo sapiens, LPS 10 ng/ml, 18 h, read-out: Whole Blood: TGFβ IC50
[14] = human whole blood, inhibition of LPS induced inflammation, read-out: IC50 TGFbeta
[15] = Homo sapiens, LPS 10 ng/ml, 18 h, read-out: Whole Blood: TNF α IC50
[16] = human whole blood, inhibition of LPS induced inflammation, read-out: IC50 TNFa

pIC50 (IFN-gamma; [1]) | pIC50 (IFN-gamma; [2]) | pIC50 (IL-1beta; [3]) | pIC50 (IL-1beta; [4]) | pIC50 (IL-4; [5]) | pIC50 (IL-4; [6]) | pIC50 (IL-5; [7]) | pIC50 (IL-5; [8]) | pIC50 (IL-13; [9]) | pIC50 (IL-13; [10]) | pIC50 (IL-33; [11]) | pIC50 (IL-33; [12]) | pIC50 (TGF-beta; [13]) | pIC50 (TGF-beta; [14]) | pIC50 (TNF-alpha; [15]) | pIC50 (TNF-alpha; [16]) | pIC50 (Human neutrophils) | Compound | inhibition at 0.3 µM (Human neutrophils) | other results
 |  |  |  |  |  |  |  |  |  |  |  |  |  |  |  |  | O=C(O)c1cc(NC(=O)c2cc(O)c(C(=O)Nc3ccccc3-c3nnn[nH]3)cc2O)ccc1O [Ic-001a-Tz/004a, 5-(4-(2-(1H-tetrazol-5-yl)phenylaminocarbonyl)-2,5-dihydroxybenzamido)-2-hydroxy benzoic acid] | 82.8% | pIC50 (IFN-gamma; Homo sapiens, 18 h, read-out: Whole Blood: IFNγ IC50): 6.21; pIC50 (IFN-gamma; Homo sapiens, read-out: IC50 IFNγ): 6.21; pIC50 (IL-1beta; Homo sapiens, 18 h, read-out: Whole Blood: IL-1β IC50): < 4.00; pIC50 (IL-1beta; Homo sapiens, read-out: IC50 IL-1b): 4.00; pIC50 (IL-4; Homo sapiens, 18 h, read-out: Whole Blood: IL-4 IC50): < 4.00; pIC50 (IL-4; Homo sapiens, read-out: IC50 IL-4): 4.00; pIC50 (IL-5; Homo sapiens, 18 h, read-out: Whole Blood: IL-5 IC50): < 4.00; pIC50 (IL-5; Homo sapiens, read-out: IC50 IL-5): 4.00; pIC50 (IL-13; Homo sapiens, 18 h, read-out: Whole Blood: IL-13 IC50): 5.82; pIC50 (IL-13; Homo sapiens, read-out: IC50 IL-13): 5.82; pIC50 (IL-33; Homo sapiens, 18 h, read-out: Whole Blood: IL-33 IC50): 5.78; pIC50 (IL-33; Homo sapiens, read-out: IC50 IL-33): 5.78; pIC50 (TGF-beta; Homo sapiens, 18 h, read-out: Whole Blood: TGFβ IC50): < 4.00; pIC50 (TGF-beta; Homo sapiens, read-out: IC50 TGFbeta): 4.00; pIC50 (TNF-alpha; Homo sapiens, 18 h, read-out: Whole Blood: TNF α IC50): 8.70; pIC50 (TNF-alpha; Homo sapiens, read-out: IC50 TNFa): 8.70
5.61 | 5.61 | < 4.00 | 4.00 | < 4.00 | 4.00 | < 4.00 | 4.00 | 6.51 | 6.51 | 6.51 | 6.51 | < 4.00 | 4.00 | 7.52 | 7.52 |  | O=C(O)c1cc(O)c(CN(Cc2cc(O)c(C(=O)O)cc2O)Cc2cc(O)c(C(=O)O)cc2O)cc1O [IIIc-061a, Tris(4-carboxy-2,5-dihydroxyphenylmethyl)amine] | 92.5% | 
< 4.00 | 4.00 | < 4.00 | 4.00 | < 4.00 | 4.00 | < 4.00 | 4.00 | 6.82 | 6.82 | 6.62 | 6.62 | < 4.00 | 4.00 | 6.77 | 6.77 | 6.41 | O=C(O)c1cc(NC(=O)c2cc(O)c(C(=O)O)cc2O)cc(C(=O)O)c1 [Ia-015a, 5-(4-carboxy-2,5-dihydroxybenzamido)isophthalic acid] | 43.8% | 
4.97 | 4.97 | 4.56 | 4.56 | < 4.00 | 4.00 | < 4.00 | 4.00 | 4.25 | 4.25 | 4.47 | 4.47 | < 4.00 | 4.00 | 6.74 | 6.74 | 6.54 | O=C(O)c1cc(O)cc(CSCc2cc(O)cc(C(=O)O)c2O)c1O [IVc-058a, 3-((2,5-Dihydroxy-3-carboxyphenyl)methylthiomethyl)-2,5-dihydroxybenzoic acid] | 77% | 
6.36 | 6.36 | < 4.00 | 4.00 | < 4.00 | 4.00 | < 4.00 | 4.00 | 4.06 | 4.06 | < 4.00 | 4.00 | < 4.00 | 4.00 | 7.30 | 7.30 | 5.62 | O=C(O)c1cc(O)c(C(=O)Nc2ccccc2S(=O)(=O)O)cc1O [Ia-001c, 2,5-dihydroxy-4-(2-sulfophenylaminocarbonyl)benzoic acid] | 40.4% | 
< 4.00 | 4.00 | < 4.00 | 4.00 | < 4.00 | 4.00 | < 4.00 | 4.00 | 4.49 | 4.49 | 4.63 | 4.63 | < 4.00 | 4.00 | 6.20 | 6.20 | 5.81 | O=C(O)c1cc(O)c(C(=O)Nc2ccccc2-c2nnn[nH]2)cc1O [Ia-001a-Tz, 4-(2-(1H-tetrazol-5-yl)phenyl-aminocarbonyl)-2,5-dihydroxybenzoic acid] | 54.3% | 
4.72 | 4.72 | < 4.00 | 4.00 | < 4.00 | 4.00 | < 4.00 | 4.00 | 6.82 | 6.82 | 6.85 | 6.85 | < 4.00 | 4.00 | 6.51 | 6.51 |  | O=C(O)Cc1cc(O)c(C(=O)Nc2ccccc2-c2nnn[nH]2)cc1O [IIIa-001aTz] | 69.3% | 
4.52 | 4.52 | 4.46 | 4.46 | < 4.00 | 4.00 | < 4.00 | 4.00 | 4.58 | 4.58 | 4.71 | 4.71 | < 4.00 | 4.00 | 7.70 | 7.70 | 6.45 | O=C(O)c1cc(O)c(C(=O)Nc2ccccc2C(=O)O)cc1O [Ia-001a, 4-(2-carboxyphenylaminocarbonyl)-2,5-dihydroxybenzoic acid] | 48% | 

Compound | pIC50 (IFN-gamma; [1]) | pIC50 (IFN-gamma; [2]) | pIC50 (IL-1beta; [3]) | pIC50 (IL-1beta; [4]) | pIC50 (IL-4; [5]) | pIC50 (IL-4; [6]) | pIC50 (IL-5; [7]) | pIC50 (IL-5; [8]) | pIC50 (IL-13; [9]) | pIC50 (IL-13; [10]) | pIC50 (IL-33; [11]) | pIC50 (IL-33; [12]) | pIC50 (TGF-beta; [13]) | pIC50 (TGF-beta; [14]) | pIC50 (TNF-alpha; [15]) | pIC50 (TNF-alpha; [16]) | pIC50 (Human neutrophils) | inhibition at 0.3 µM (Human neutrophils) | other results
O=C(O)c1cc(NC(=O)c2cc(O)cc(C(=O)Nc3ccc(O)c(C(=O)O)c3)c2O)ccc1O [IIc-007a, 5-(3-(3-carboxy-4-hydroxyphenylaminocarbonyl)-2,5-dihydroxybenzamido)-2-hydroxy benzoic acid] | 6.96 | 6.96 | < 4.00 | 4.00 | < 4.00 | 4.00 | < 4.00 | 4.00 | 6.60 | 6.60 | 6.74 | 6.74 | < 4.00 | 4.00 | 7.52 | 7.52 |  | 93% | 
